Results as given in patent US12054449B2, “Phenylcarbamate crystalline form and method for manufacturing the same” (BIO-PHARM SOLUTIONS CO., LTD., priority 2021, dated 2024).
Entries after “also recorded” stand apart in the source; their conditions may differ.

What was measured:
Format in all cases: physicochemical
[1] = Log D (shake flask at pH 5) and Log P
[2] = Gravimetric vapor sorption (GVS)
Method: Sorption isotherms were obtained using an SMS DVS intrinsic water absorption analyzer controlled by SMS Analysis Suite software. A sample temperature was maintained at 25° C. throughout. Humidity was controlled by a mixed stream of dry and wet nitrogen with a total flow rate of 200 mL/min. The relative humidity was measured with a calibrated Rotronic probe (dynamic range: 1.0-100% RH) located near the sample. The weight change (mass relaxation) of the sample as a function of % RH was continuously monitored using a microbalance (accuracy±0.005 mg). 5 to 20 mg of the sample was stored in a prepared stainless steel mesh basket under atmospheric conditions.

[3] = Storage under stress humidity (40° C./75% RH or RT/97% RH, 7 days) with XRPD, UPLC, 1H NMR
[4] = Change of crystalline form on standing or drying (XRPD); settings: left overnight on the XRPD disc under laboratory conditions
Method: XRPD patterns were detected by CuKα irradiation (30 kV, 10 mA) using a Bruker AXS D2 diffractometer. The analysis was performed using θ-θ geometry and a LynxEye detector at 5 to 42° 2θ with a step size of 0.024° 2θ at 0.1 sec/step.
Samples were run at ambient conditions and prepared as flat specimens using powder received without grinding. About 1 to 2 mg of the sample was lightly pressed on a silicon wafer to obtain a flat surface.

C[C@H](OC(N)=O)[C@@H](O)c1ccccc1Cl [ED01748-006-001-00, 1-(2-chlorophenyl)-(S)-1-hydroxypropyl-(S)-2-carbamate]
logP [1]: 1.32 | logD ([1]; shake flask): 1.32 | XRPD post GVS (change in form) ([2]; after GVS experiment): no change in morphology; also recorded: Shows no change in form by XRPD post GVS | GVS mass increase ([2]; second sorption cycle, 0-90% RH, 25° C., listed as Pattern 1): 0.14% | 1H NMR post storage at 40° C./75% RH for 7 days ([3]; 40° C./75% RH): Consistent with structure | XRPD post storage at 40° C./75% RH for 7 days (change in form) ([3]; 40° C./75% RH): no change in morphology; also recorded: Shows no change in form by XRPD post storage | UPLC purity post storage at 40° C./75% RH for 7 days ([3]; 40° C./75% RH, initial UPLC purity 98.6%): 97.4% | XRPD post storage at 40° C./75% RH for 7 days (change in form) ([3]; 40° C./75% RH, listed as Pattern 1): no morphological change | 1H NMR purity post storage at RT/97% RH for 7 days ([3]; RT/97% RH): Consistent with structure | XRPD post storage at RT/97% RH for 7 days (change in form) ([3]; RT/97% RH): no change in morphology; also recorded: Shows no change in form by XRPD post storage | UPLC purity post storage at RT/97% RH for 7 days ([3]; RT/97% RH, initial UPLC purity 98.6%): 97.7% | XRPD post storage at RT/97% RH for 7 days (change in form) ([3]; RT/97% RH, listed as Pattern 1): no morphological change | Form by XRPD after being left overnight [4]: Pattern 3
